Results from US20030104393A1, “Blood assessment of injury” (priority 2000, published 2003).

Experiments:
[1] = test system: brain; assay: Genes induced in the brain following kainic acid-induced seizures (microarray); assay type: in vivo, rat; set-up: key: NC = No Change
Description: (§1) Status epilepticus is produced by intraperitoneally injecting a glutamate analogue/excitotoxin, kainic acid (10 mg/kg i.p.). Animals with kainate-induced seizures are observed following drug administration to ensure that they continue to have complex seizures over a 30 minute period.
All animals are allowed to survive for 24 hours following each treatment. At that time they are deeply anesthetized with ketamine (100 mg/kg) and xylazine (20 mg/kg) given intraperitoneally. Once anesthetized, the chest is opened and a direct cardiac puncture performed with a syringe and 10 cc of blood is aspirated. Immediately following removal of the blood, the animal is decapitated while deeply anesthetized and the brain removed.
One day after hypoxia, status epilepticus, hypoglycemia, ischemic stroke, and hemorrhagic stroke are produced in adult rats, RNA or protein is isolated from the blood cells and from the brains of the animals described in Example 1. The pattern of genes or proteins expressed in the blood cells following each of these types of injury—hypoxia, status epilepticus, hypoglycemia, ischemic stroke, and hemorrhagic stroke is captured on a commercially available microarray (Affymetrix chip). The pattern of gene or protein expression is defined using an expression method, which then forms a genomic or proteomic organ injury database, which is used in assessing injury.
Note that the genes induced in the blood are different from the genes induced in the brain. Therefore, different organs express different genes. In addition, the genes induced by hypoxia in the blood are different from the genes induced by hypoxia in the brain. That is, the same stimulus induces different genes in different organs. Lastly, even though similar genes are induced in the brain by ischemia (stroke) and kainic acid-induced seizures, there are many differences in the gene expression between the two. Therefore, the pattern of gene expression in the brains of ischemic animals is distinctive from the pattern of expression of the kainate animals, and this pattern can be used to diagnose the different conditions of stroke and status epilepticus, even though many of the same genes are induced in the two conditions.
In further support, the following Tables 5 and 6 list those genes induced in the brain following stroke, kainic induced seizures, and hypoxia as compared with untouched controls and sham-operated controls.

[2] = test system: neurons; assay: Status epilepticus produced by kainic acid: neuronal injury; assay type: in vivo, rat; conditions: kainic acid 10 mg/kg i.p., 24 hours later
Description: as §1

SMILES: C=C(C)[C@H]1CN[C@H](C(=O)O)[C@H]1CC(=O)O [kainate, kainic acid]
- Kainic Acid Seizure (fold change) ([1]; brain, D29769_at bone morphogenic protein-7): NC
- Kainic Acid Seizure (fold change) ([1]; brain, J03624_at Rat galanin (a neuropeptide) RNA): 3 fold change
- Kainic Acid Seizure (fold change) ([1]; brain, L20913_s_at vascular endothelial growth factor form 3 RNA): NC
- Kainic Acid Seizure (fold change) ([1]; brain, L32591RNA_g GADD45 RNA): 3 fold change
- Kainic Acid Seizure (fold change) ([1]; brain, L46593cds_at small proline-rich protein (spr) gene): 4 fold change
- Kainic Acid Seizure (fold change) ([1]; brain, M55534RNA_s Rat alpha-crystallin b chain RNA): 2 fold change
- Kainic Acid Seizure (fold change) ([1]; brain, M60616_at Rat collagenase (UMRCase) RNA): NC
- Kainic Acid Seizure (fold change) ([1]; brain, M63282_at Rat leucine zipper protein RNA): NC
- Kainic Acid Seizure (fold change) ([1]; brain, M90661_at Rattus norvegicus insulin receptor-related receptor-alpha subunit RNA): NC
- Kainic Acid Seizure (fold change) ([1]; brain, RC_AA891041 EST): NC
- Kainic Acid Seizure (fold change) ([1]; brain, U13396_at protein-tyrosine kinase (JAK2) RNA): NC
- Kainic Acid Seizure (fold change) ([1]; brain, U16674_at interleukin-12p40 RNA): NC
- Kainic Acid Seizure (fold change) ([1]; brain, U49930_g_at ICE-like cysteine protease (Lice) RNA): 2.7 fold change
- Kainic Acid Seizure (fold change) ([1]; brain, U77829RNA_s Rattus norvegicus gas-5 growth arrest homolog NCn-translated RNA sequence): 3.4 fold change
- Kainic Acid Seizure (fold change) ([1]; brain, U88572_at AMPA receptor interacting protein GRIP RNA): 3.5 fold change
- Kainic Acid Seizure (fold change) ([1]; brain, U099870_at Vmajor vault protein RNA): 2.5 fold change
- Kainic Acid Seizure (fold change) ([1]; brain, Y10619cds_at transcriptional regulator, Relax): 3.5 fold change
- Kainic Acid Seizure (fold change) ([1]; brain, a30543cds_s_ p-Meta-a RNA for CD44 surface protein from patent WO9117248): 4.4 fold change
- Kainic Acid Seizure (fold change) ([1]; brain, ab005900_at endothelial receptor for oxidized low density): NC
- Kainic Acid Seizure (fold change) ([1]; brain, af00898_at p58/p45 RNA, alternatively spliced form clone H): 3.3 fold change
- Kainic Acid Seizure (fold change) ([1]; brain, af28784cds# glial fibrillary acidic proteins alpha and delta (GFAP) gene): 6.2 fold change
- Kainic Acid Seizure (fold change) ([1]; brain, af030089UTR# Rattus norvegicus activity and neurotransmitter-induced early gene): 4 fold change
- Kainic Acid Seizure (fold change) ([1]; brain, af036537_at homocysteine respondent protein): NC
- Kainic Acid Seizure (fold change) ([1]; brain, af036537 homocysteine respondent protein HCYP2 RNA): NC
- Kainic Acid Seizure (fold change) ([1]; brain, af053362_at Rattus norvegicus death effector domain-containing protein DEFT RNA): NC
- Kainic Acid Seizure (fold change) ([1]; brain, af074608RNA MHC class I antigen (RT1.EC2) gene): 3 fold change
- Kainic Acid Seizure (fold change) ([1]; brain, af083269_at p41-Arc RNA): 3.3 fold change
- Kainic Acid Seizure (fold change) ([1]; brain, af083269_g_at p41-Arc RNA): 3.3 fold change
- Kainic Acid Seizure (fold change) ([1]; brain, af086624_s_a serine threonine kinase (pim-3) RNA): NC
- Kainic Acid Seizure (fold change) ([1]; brain, af087944RNA monocyte differentiation antigen CD14 gene): 2.6 fold change
- Kainic Acid Seizure (fold change) ([1]; brain, af092090_at cp151 RNA): 2.7 fold change
- Kainic Acid Seizure (fold change) ([1]; brain, aj222813_s_a precursor interleukin 18 (IL-18)): 3.8 fold change
- Kainic Acid Seizure (fold change) ([1]; brain, d00913_g_at intercellular adhesion molecule-1): NC
- Kainic Acid Seizure (fold change) ([1]; brain, d8557s_at RYB-a): 3.5 fold change
- Kainic Acid Seizure (fold change) ([1]; brain, d17370_g_at cystathionine gamma-lyase): 3.8 fold change
- Kainic Acid Seizure (fold change) ([1]; brain, d89069_f_at inducible carbonyl reductase): NC
- Kainic Acid Seizure (fold change) ([1]; brain, d90404_at cathepsin C): 2.8 fold change
- Kainic Acid Seizure (fold change) ([1]; brain, d90404_g_at cathepsin C): NC
- Kainic Acid Seizure (fold change) ([1]; brain, j00780_at rat preprorelaxin RNA): NC
- Kainic Acid Seizure (fold change) ([1]; brain, j04563_at Rat cAMP phosphodiesterase RNA): 5.4 fold change
- Kainic Acid Seizure (fold change) ([1]; brain; j04792_at ornithine decarboxylase ODC) gene): 1.7 fold change
- Kainic Acid Seizure (fold change) ([1]; brain, m13979_at Rat brain and all other organ glucose-transporter protein RNA): 2.1 fold change
- Kainic Acid Seizure (fold change) ([1]; brain, m18330_at Rat protein kinase C delta subspecies): 3.3 fold change
- Kainic Acid Seizure (fold change) ([1]; brain, m19257_at Rat cysosolic retinol-binding protein (CRBP) RNA): 4 fold change
- Kainic Acid Seizure (fold change) ([1]; brain, m32062_at Rat Fc-gamma receptor RNA): 1.5 fold change
- Kainic Acid Seizure (fold change) ([1]; brain, m34253_g_at Rat-interferon regulatory factor1 (IRF-a) RNA): 3 fold change
- Kainic Acid Seizure (fold change) ([1]; brain, m60753_s_at catechol-O-methyltransferase RNA): 4.5 fold change
- Kainic Acid Seizure (fold change) ([1]; brain, m63122_at Rat tumor necrosis factor receptor (TNF receptor)): 2.8 fold change
- Kainic Acid Seizure (fold change) ([1]; brain, m80633_at Rat adenylyl cyclase type (IV) RNA): 5.2 fold change
- Kainic Acid Seizure (fold change) ([1]; brain, rc_A1014163 EST): 2.3 fold change
- Kainic Acid Seizure (fold change) ([1]; brain, rc_aa799323— EST): NC
- Kainic Acid Seizure (fold change) ([1]; brain, rc_aa799448 EST): NC
- Kainic Acid Seizure (fold change) ([1]; brain, rc_aa799686 EST): 6.3 fold change
- Kainic Acid Seizure (fold change) ([1]; brain, rc_aa799773 EST): 4.7 fold change
- Kainic Acid Seizure (fold change) ([1]; brain, rc_aa800701 EST): NC
- Kainic Acid Seizure (fold change) ([1]; brain, rc_aa800962 EST): NC
- Kainic Acid Seizure (fold change) ([1]; brain, rc_aa866443 EST): NC
- Kainic Acid Seizure (fold change) ([1]; brain, rc_aa875032 EST): NC
- Kainic Acid Seizure (fold change) ([1]; brain, rc_aa875126 EST): 8.7 fold change
- Kainic Acid Seizure (fold change) ([1]; brain, rc_aa891576 EST): NC
- Kainic Acid Seizure (fold change) ([1]; brain, rc_aa892750 EST): NC
- Kainic Acid Seizure (fold change) ([1]; brain, rc_aa892775 EST): 2.3 fold change
- Kainic Acid Seizure (fold change) ([1]; brain, rc_aa892851 EST): NC
- Kainic Acid Seizure (fold change) ([1]; brain, rc_aa900476 EST): NC
- Kainic Acid Seizure (fold change) ([1]; brain, rc_aa926129_ EST): 4.9 fold change
- Kainic Acid Seizure (fold change) ([1]; brain, rc_aa945737 EST): NC
- Kainic Acid Seizure (fold change) ([1]; brain, rc_aa946044 EST): 2.8 fold change
- Kainic Acid Seizure (fold change) ([1]; brain, rc_ai6i39302 EST): NC
- Kainic Acid Seizure (fold change) ([1]; brain, rc_ai070295 EST): 1.9 fold change
- Kainic Acid Seizure (fold change) ([1]; brain, rc_ai71962 EST): 1.9 fold change
- Kainic Acid Seizure (fold change) ([1]; brain, rc_ai169756 EST): 1.7 fold change
- Kainic Acid Seizure (fold change) ([1]; brain, rc_ai171966 EST): 3.8 fold change
- Kainic Acid Seizure (fold change) ([1]; brain, rc_ai176456 EST): 2.3 fold change
- Kainic Acid Seizure (fold change) ([1]; brain, rc_ai233219 EST): NC
- Kainic Acid Seizure (fold change) ([1]; brain, rc_ai638945 EST): NC
- Kainic Acid Seizure (fold change) ([1]; brain, rc_ai639042): NC
- Kainic Acid Seizure (fold change) ([1]; brain, rc_ai639161 EST): 7.5 fold change
- Kainic Acid Seizure (fold change) ([1]; brain, rc_ai639233 EST): NC
- Kainic Acid Seizure (fold change) ([1]; brain, rc_ai639372_ EST): NC
- Kainic Acid Seizure (fold change) ([1]; brain, rc_ai639402 EST): NC
- Kainic Acid Seizure (fold change) ([1]; brain, rc_ai639457 EST): NC
- Kainic Acid Seizure (fold change) ([1]; brain, s77494_s_at lysyl oxidase {3Nuntranslated region} [rats, aorta smooth muscle cell): NC
- Kainic Acid Seizure (fold change) ([1]; brain, s82649_s_at Narp = neuronal activity-regulated pentraxin): 2.2 fold change
- Kainic Acid Seizure (fold change) ([1]; brain, u04835_at CREMdeltaC—G gene): 2.1 fold change
- Kainic Acid Seizure (fold change) ([1]; brain, u05014_at Rattus norvegicus Sprague/Dawley PHAS-a): 3.9 fold change
- Kainic Acid Seizure (fold change) ([1]; brain, u23407_at Rattus norvegicus cellular retinoic acid-binding protein II (CRABP II) RNA): 9.2 fold change
- Kainic Acid Seizure (fold change) ([1]; brain, u33500_g_at retinol dehydrogenase type II RNA): NC
- Kainic Acid Seizure (fold change) ([1]; brain, u78102_at krox20 RNA): NC
- Kainic Acid Seizure (fold change) ([1]; brain, x54686cds_at pJunB gene): NC
- Kainic Acid Seizure (fold change) ([1]; brain, x60351cds_s alpha B-crystallin): 2.4 fold change
- Kainic Acid Seizure (fold change) ([1]; brain, x62951RNA_s R. norvegicus RNA (pBUS19) with repetitive): NC
- Kainic Acid Seizure (fold change) ([1]; brain, x63434_at R. norvegicus RNA for urokinase-type plasminogen activator): NC
- Kainic Acid Seizure (fold change) ([1]; brain, x63594cds_g_ RL/IF-1 RNA): NC
- Kainic Acid Seizure (fold change) ([1]; brain, x71127_at complement protein C1q beta): 2.7 fold change
- Kainic Acid Seizure (fold change) ([1]; brain, x71127_s_at complement protein C1q beta chain): 3.6 fold change
- Kainic Acid Seizure (fold change) ([1]; brain, x74565cds_g_ TBFII RNA for polypyrimidine tract binding): 5.4 fold change
- Kainic Acid Seizure (fold change) ([1]; brain, x95986RNA#1 CBR gene): NC
- Kainic Acid Seizure (fold change) ([1]; brain, x98377_at RNA for emerin): NC
- Kainic Acid Seizure (fold change) ([1]; brain, x99121RNA#1 RT6 gene, exon 2, testis): NC
- Kainic Acid Seizure (fold change) ([1]; brain, z22812_at interleukin-1 receptor type 2): NC
- Neuronal injury [2]: diffuse neuronal injury
